Measured values reported in US6218431A, “Substituted biphenyls” (Bayer Corporation, priority 1997, dated 2001).

target: T1, glucagon receptor (Homo sapiens, UniProt P47871); assay: glucagon receptor binding assay (125I-glucagon, CHO-HGR membranes); settings: 20 μM; reported where 20 μM did not reduce glucagon binding by 50%
T1 construct: expressed in transfected cells; host or cells: Chinese Hamster Ovary cells (CHO-HGR), membranes
Procedure, shortened: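 Membranes from CHO cells expressing glucagon receptor (10 ug protein) in Tris pH 7.4 buffer with EDTA, BSA and bacitracin, incubated with test compound and 125I-glucagon (9 fmol) 60 min at room temperature. Bound radioactivity counted after filtration; nonspecific binding defined with 1 μM native glucagon; 0.5% DMSO.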

T1 sequence (P47871 26-477): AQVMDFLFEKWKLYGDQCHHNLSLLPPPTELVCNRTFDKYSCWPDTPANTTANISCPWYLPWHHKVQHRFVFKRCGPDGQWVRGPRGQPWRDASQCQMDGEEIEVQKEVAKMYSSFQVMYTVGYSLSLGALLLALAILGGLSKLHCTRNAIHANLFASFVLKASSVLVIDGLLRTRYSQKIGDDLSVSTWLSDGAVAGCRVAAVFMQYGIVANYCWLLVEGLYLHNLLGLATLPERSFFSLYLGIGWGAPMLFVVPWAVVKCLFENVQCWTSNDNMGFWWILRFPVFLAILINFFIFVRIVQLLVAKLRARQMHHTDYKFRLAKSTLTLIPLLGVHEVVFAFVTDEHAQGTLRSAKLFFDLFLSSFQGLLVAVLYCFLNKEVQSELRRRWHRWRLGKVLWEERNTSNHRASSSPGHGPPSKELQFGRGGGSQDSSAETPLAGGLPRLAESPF

SMILES	inhibition at 20 µM [%]
CC(C)c1nc(C(C)C)c(CCCN(C)C)c(-c2ccc(F)cc2)c1CO [Example 89, 2,6-Diisopropyl-3-hydroxymethyl-4-(4fluorophenyl)-5-[(3-dimethyl-amino)propyl]pyridine]	36
CCCC=Cc1c(C(C)C)nc(C(C)C)c(CO)c1-c1ccc([S+](C)[O-])cc1 (centres unmarked) [Example 175, 2,6-Diisopropyl-3-hydroxymethyl-4-[4-(methylsulfinyl)phenyl]-5-(pent-1-enyl)pyridine]	40.9
CCCCCc1c(CN2CCOCC2)nc(C(C)C)c(CO)c1-c1ccc(F)cc1 [Example 199, 2-Morpholinomethyl-3-pentyl-4-(4-fluorophenyl)-5-hydroxymethyl-6-isopropylpyridine]	8.67
CCCCCc1c(C)nc(C)c(CO)c1-c1ccccc1 [Example 4]	1.98
CCCCCc1c(C(C)C)nc(C(C)C)c(CO)c1-c1cccc(Cl)c1 [Example 146, 2,6-Diisopropyl-3-hydroxymethyl-4-(3-chlorophenyl)-5-pentylpyridine]	48.8
CC(C)c1nc(C(C)C)c(C(C)O)c(-c2ccc(F)cc2)c1CO (racemic) [Example 93, (±)-2,6-Diisopropyl-3-hydroxymethyl-4-(4-fluorophenyl-5-(1-hydroxy-ethyl)pyridine]	28.3
CCCCCc1c(C(C)C)nc(C(C)C)c(CO)c1-c1ccc(CC)cc1 [Example 132, 2,6-Diisopropyl-3-hydroxymethyl-4-(4-ethylphenyl)-5-pentylpyridine]	42.5
CCCCCc1c(C(C)C)nc(C(C)C)c(CCO)c1-c1ccc(F)cc1 [Example 119, 2,6-Diisopropyl-3-(2-hydroxyethyl)-4-(4fluorophenyl)-5-pentylpyridine]	30.2
CCCCCc1c(C(C)C)nc(C(C)C)c(CO)c1-c1ccc(Cl)cc1Cl [Example 148, 2,6-Diisopropyl-3-hydroxymethyl-4-(2,4-dichlorophenyl)-5-pentylpyridine]	7.78
CCCC=Cc1c(C)nc(C)c(CO)c1-c1ccccc1 [Example 3]	1.52
CC(C)c1nc(C(C)C)c(C(O)C(C)C)c(-c2ccc(F)cc2)c1CO (racemic) [Example 97, (±)-2,6-Diisopropyl-3-hydroxymethyl-4-(4-fluorophenyl)-5-[(1-hydroxy-2-methyl)propyl]pyridine]	29.2
CCCCCc1c(COC)nc(C(C)C)c(CO)c1-c1ccc(F)cc1 [Example 201, 2-Methoxymethyl-3-pentyl-4-(4-fluorophenyl)-5-hydroxymethyl-6-isopropylpyridine]	46.7
CC(C)c1nc(C(C)C)c(CCCCCCCCC(=O)O)c(-c2ccc(F)cc2)c1CO [Example 91]	14.2
CCCC=Cc1c(C(C)C)nc(C(C)C)c(CO)c1-c1ccc(S(C)(=O)=O)cc1 [Example 176, 2,6-Diisopropyl-3-hydroxymethyl-4-[4-(methylsulfonyl)phenyl]-5-(pent-1-enyl)pyridine]	13.8
CCCC=Cc1c(C(C)C)nc(C(C)C)c(CO)c1-c1ccc(-c2ccccc2)cc1 [Example 135, 2,6-Diisopropyl-3-hydroxymethyl-4-[4-(phenyl)phenyl]-5-(pent-1-enyl)pyridine]	4.64
CCCCCc1c(C(C)C)nc(C(C)C)c(C(O)CC)c1-c1ccc(F)cc1 (racemic) [Example 117]	45.1

same assay, conditions: 125I-glucagon; 60 min at room temperature; read-out: IC50

SMILES	IC50 [nM]
CCCC=Cc1c(C(C)C)nc(C(C)C)c(CO)c1-c1ccc(F)cc1F [Example 150, 2,6-Diisopropyl-3-hydroxymethyl-4-(2,4-difluorophenyl)-5-(pent-1-enyl)pyridine]	4500
CCCCCc1c(C(C)C)nc(C(C)C)c(CO)c1-c1ccccc1F [Example 138, 2,6-Diisopropyl-3-hydroxymethyl-4-(2-fluorophenyl)-5-pentylpyridine]	9000
CC(C)c1nc(C(C)C)c(CSc2cccc(F)c2)c(-c2ccc(F)cc2)c1CO [Example 59, 2,6-Diisopropyl-3-hydroxymethyl-4-(4-fluorophenyl)-5-[(3-fluoro-phenyl)thio]methylpyridine]	1000
CCCCCc1c(C(C)C)nc(C(C)C)c(C(O)C(F)(F)F)c1-c1ccc(F)cc1 (racemic) [Example 118, (±)-2,6-Diisopropyl-3-(2,2,2-trifluoro-1-hydroxy)ethyl-4-(4-fluoro-phenyl)-5-pentylpyridine]	13000
CCCc1c(C(C)C)nc(C(C)C)c(CO)c1-c1ccccc1 [Example 17]	600
CCCC=Cc1c(C(C)C)cc(C(C)C)c(CO)c1-c1ccc(F)cc1 [Example 194, 3,5-Diisopropyl-2-hydroxymethyl-6-(pent-1-enyl)-4'-fluoro-1,1'-biphenyl]	1000
CCCCCc1c(C(C)=O)nc(C(C)C)c(CO)c1-c1ccc(F)cc1 [Example 218, 2-Acetyl-3-pentyl-4-(4-fluorophenyl)-5-hydroxymethyl-6-isopropylpyridine]	6500
COc1ccccc1SCc1c(C(C)C)nc(C(C)C)c(CO)c1-c1ccc(F)cc1 [Example 60, 2,6-Diisopropyl-3-hydroxymethyl-4-(4-fluorophenyl)-5-[(2-methoxy-phenyl)thio]methylpyridine]	1600
CCCC=Cc1c(C(C)C)nc(C(C)C)c(CO)c1-c1ccccc1F [Example 137, 2,6-Diisopropyl-3-hydroxymethyl-4-(2-fluorophenyl)-5-(pent-1-enyl)-pyridine]	11000
CCCc1c(C)cc(C)c(C(C)O)c1-c1ccc(F)cc1 (centres unmarked) [Example 195, 3,5-Dimethyl-2-(1-hydroxyethyl)-6-propyl-4'-fluoro-1,1'-biphenyl]	12000
CC(C)c1nc2c(c(-c3ccc(F)cc3)c1CO)CCC2(C)C [Example 234, 2-Isopropyl-3-hydroxymethyl-4-(4-fluorophenyl)-7,7-dimethyl-5H-cyclopenta[b]pyridine]	8000
CC(C)c1cc(C(C)C)c(CSc2c(F)c(F)cc(F)c2F)c(-c2ccc(F)cc2)c1CO [Example 288]	2000
CCCc1c(C(C)C)cc(C(C)C)c(C(C)O)c1-c1ccc(F)cc1O (centres unmarked) [Example 242, 3,5-Diisopropyl-2-(1-hydroxyethyl)-6-propyl-4'-fluoro-2'-hydroxy-1,1'-biphenyl]	5
CCCCCc1c(C(C)C)nc(C(C)C)c(C(C)O)c1-c1ccccc1O (single isomer, unassigned) [Example 164-D2, 2,6-Diisopropyl-3-(1-hydroxyethyl)-4-(2-hydroxyphenyl)-5-pentylpyridine]	100
Cc1ccc(COCc2c(C(C)C)cc(C(C)C)c(C(C)O)c2-c2ccc(F)cc2)cc1 (single isomer, unassigned; (+)) [Example 248, (+)-3,5-Diisopropyl-2-[(p-methylbenzyloxy)methyl]-6-(1-hydroxyethyl)-4'-fluoro-1,1'-biphenyl]	310
CCCCCc1c(C(C)C)nc(C(C)C)c(CO)c1-c1ccc(F)c(F)c1 [Example 159, 2,6-Diisopropyl-3-hydroxymethyl-4-(3,4-difluorophenyl)-5-pentyl-pyridine]	1100
CCCc1c(C(C)C)nc(C(C)C)c(CO)c1-c1ccc(F)cc1 [Example 25, 2,6-Diisopropyl-3-hydroxymethyl-4-(4-fluorophenyl)-5-propylpyridine]	400
CCc1ccc(SCc2c(C(C)C)nc(C(C)C)c(CO)c2-c2ccc(F)cc2)cc1 [Example 62, 2,6-Diisopropyl-3-hydroxymethyl-4-(4-fluorophenyl)-5-[(4-ethyl-phenyl)thio]methylpyridine]	1100
CCc1c(C(C)C)cc(C(C)C)c(C(C)O)c1-c1ccc(F)cc1O (centres unmarked) [Example 246, 3,5-Diisopropyl-2-(1-hydroxyethyl)-6-ethyl-4'-fluoro-2'-hydroxy-1,1'-biphenyl]	11
CCCCCCC=Cc1c(C(C)C)nc(C(C)C)c(CO)c1-c1ccc(F)cc1 [Example 33, 2,6-Diisopropyl-3-hydroxymethyl-4-(4-fluorophenyl)-5-(1-octenyl)-pyridine]	1800
Cc1cccc(SCc2c(C(C)C)nc(C(C)C)c(CO)c2-c2ccc(F)cc2)c1 [Example 57, 2,6-Diisopropyl-3-hydroxymethyl-4-(4-fluorophenyl)-5-[(3-methyl-phenyl)thio]methylpyridine]	1100
C=CCC(O)c1nc(C(C)C)c(CO)c(-c2ccc(F)cc2)c1CCCCC (centres unmarked) [Example 205, 2-(1-Hydroxybut-3-enyl)-3-pentyl-4-(4-fluorophenyl)-5-hydroxymethyl-6-isopropylpyridine]	18000
C=CCOCc1nc(C(C)C)c(CO)c(-c2ccc(F)cc2)c1CCCCC [Example 203, 2-(Prop-2-enyloxy)methyl-3-pentyl-4-(4-fluorophenyl)-5-hydroxymethyl-6-isopropylpyridine]	6300
CCCCCc1c(C(C)C)nc(C(C)C)c(C(C)O)c1-c1ccccc1O (single isomer, unassigned) [Example 164-D1, 2,6-Diisopropyl-3-(1-hydroxyethyl)-4-(2-hydroxyphenyl)-5-pentylpyridine]	45
CCCc1c(C(C)C)cc(C(C)C)c(CO)c1-c1ccc(F)cc1O (racemic) [Example 241, 3,5-Diisopropyl-2-hydroxymethyl-6-propyl-4'-fluoro-2'-hydroxy-1,1'-biphenyl]	110
CCCCCc1c(C(O)CC)nc(C(C)C)c(CO)c1-c1ccc(F)cc1 (centres unmarked) [Example 212, 2-(1-Hydroxypropyl)-3-pentyl-4-(4-fluorophenyl)-5-hydroxymethyl-6-isopropylpyridine]	14000
C=Cc1c(C(C)C)nc(C(C)C)c(CO)c1-c1ccc(F)cc1 [Example 22, 2,6Diisopropyl-3-hydroxymethyl-4-(4-fluorophenyl)-5-ethenylpyridine]	1100

same assay, conditions: IC50, 125I-glucagon; 60 min at room temperature

SMILES	IC50 [nM]
CCCCCc1c(C(O)CCC)nc(C(C)C)c(CO)c1-c1ccc(F)cc1 (centres unmarked) [Example 211, 2-(1-Hydroxybutyl)-3-pentyl-4-(4-fluorophenyl)-5-hydroxymethyl-6-isopropylpyridine]	19000
